Source: PMC5413018, “Neuropeptide S (NPS) variants modify the signaling and risk effects of NPS Receptor 1 (NPSR1) variants in asthma” (PLoS ONE, 2017)

Legend:
[1] = molecular target: T1, NPSR1-Ile(107) (Homo sapiens, UniProt Q6W5P4, N107I); experiment: Real-time RT-PCR of downstream target genes in SH-SY5Y cells stably overexpressing NPSR1-Ile(107); format: cell-based; design: expressed in transfected cells; conditions: SH-SY5Y over-expressing NPSR1-Ile(107), 0.0001–1 μM, 3 h, dose dependent
T1 sequence (Q6W5P4 1-371 N107I): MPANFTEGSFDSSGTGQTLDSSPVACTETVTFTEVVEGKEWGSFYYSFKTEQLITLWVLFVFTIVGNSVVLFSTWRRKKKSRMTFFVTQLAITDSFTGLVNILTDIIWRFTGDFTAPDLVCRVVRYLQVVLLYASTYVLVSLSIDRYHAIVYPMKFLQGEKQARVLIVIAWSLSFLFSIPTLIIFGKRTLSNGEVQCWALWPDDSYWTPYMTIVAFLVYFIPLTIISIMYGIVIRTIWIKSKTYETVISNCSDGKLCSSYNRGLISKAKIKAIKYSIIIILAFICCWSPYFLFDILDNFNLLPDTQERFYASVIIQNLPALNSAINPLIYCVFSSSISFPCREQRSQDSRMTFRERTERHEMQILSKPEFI
Experimental: Fig 2 Real time RT-PCR analysis of NPSR1 downstream target genes. (A) Time-dependent mRNA expression of NR4A1, FOS, CXCL2, and CCL20 in human embryonic kidney epithelial (HEK293) cells transiently transfected with either NPSR1-Ile(107) or NPSR1-Asn(107) coding variants and stimulated with either NPS-Val(6) or NPS-Leu(6) NPS (100 nM) for 1, 3, 6, and 24 h. (B) Dose-response curves of NR4A1, FOS, IER3, and EGR1 in human SH-SY5Y stable cell line over-expressing NPSR1-Ile(107) stimulated with either NPS-Leu(6) or NPS V6 (0.0001–1 μM) for 3 h. The results are presented as fold-changes in comparison to the unstimulated cells. GAPDH was used as the endogenous reference, and data are expressed as mean of triplicate samples. […] In all experiments, results were calculated with the comparative Ct method.
Altered neuroinflammatory mechanisms have been implicated in allergic airway inflammation. […] SH-SY5Y cells stably overexpressing NPSR1-Ile(107) were stimulated with either NPS-Leu(6) or NPS-Val(6) (0.0001–1 μM) for 3 h and the mRNA expression of known downstream target genes in these cells was detected using RT-PCR. […] These observations validated the results detected in HEK293 cells in an independent cell line.
The stable NPSR1-A-GFP expressing SH-SY5Y cells were engineered and cultured as described before. […] The changes in gene expression were analyzed with real-time PCR (RT-PCR). […]

[2] = test system: phagocytosis; conditions: cited from earlier work
Description: (§1) In our cells assays, the magnitude of the mRNA expression of NR4A1 was clearly dependent on the combination of NPS and NPSR1 variants (Fig 2). NR4A1 is expressed in lymphocytes upon stimulation and is anti-inflammatory. NR4A1 has been recently described as a key regulator of catecholamine production by macrophages linking sympathetic stress response and inflammation ...

[3] = test system: chemotaxis; conditions: cited from earlier work
Description: as §1

[4] = test system: serum pro-inflammatory cytokines; conditions: pigs, central and peripheral administration; cited from earlier work
Description: as §1

mRNA expression of NR4A1, FOS, EGR1 and IER3 (in words) [1]: increased
Substance: Neuropeptide S (SFRNGVGTGMKKTSFQRAKS; Neuropeptide S; UniProt P0C0P6 70-89, looked up) [NPS, Neuropeptide S, variant not specified at the place]
effects on phagocytosis (in words) [2]: direct effects
effects on chemotaxis (in words) [3]: direct effects
levels of serum pro-inflammatory cytokines (in words) [4]: could be activated
